{"source": "patent US20030220521A1", "about": "“Renal-selective prodrugs for control of renal sympathetic nerve activity in the treatment of hypertension” (G.D. Searle & Co., priority 1989, published 2003)", "key": {"[1]": {"system": "male SHR", "assay": "Assay XIII: renal blood flow experiments in anesthetized SHR (renal denervation, bulbocapnine)", "assay_type": "in vivo, rat", "details": "for Mean arterial pressure / Renal Blood Flow: conjugate alone", "description": "This experiment was run to determine the roles of the renal sympathetic nerves and dopamine in the antihypertensive response to Ex. #859. For renal blood flow experiments, male SHR (11-13 weeks of age; Harlan Sprague-Dawley, Inc., Indianapolis, Ind.) were anesthetized (Inactin, 100 mg/kg, i.p.), catheters were implanted in a jugular vein and carotid artery, and an electromagnetic flow probe (Carolina Medical Electronics, Inc., King, N.C.) was placed on the left renal artery. Care was taken not to damage the renal nerves. A tracheal catheter maintained airway patency. The SHR were placed on a heated pad to maintain normal body temperature (Harvard Apparatus, South Natick, Mass.). In one group of SHR (n=6) surgical renal denervation was performed (prior to implanting the flow probe) through a left flank incision by surgically stripping the renal artery and vein of adventitia and cutting all visible renal nerve bundles under a dissection microscope (×25) and coating the vessels with a solution of 10% phenol in 95% ethanol, as previously described (9,10). In a second group of SHR (n=6) bulbocapnine (a dopamine receptor antagonist) was infused at 100 μg/kg/min starting 30 minutes prior to injection of Ex. #859 (50 mg/kg, i.v.) and continued for the duration of the study. In a third group of SHR (n=6) Ex. #859 (50 mg/kg, i.v.) was administered alone. In a final group of SHR (n=6) vehicle (0.9% NaCl) was administered. SHR were allowed 60 minutes for stabilization after surgery. After the stabilization period, 15 minutes of control mean arterial pressure and renal blood flow were obtained. Mean arterial pressure and renal blood flow were recorded for one hour."}, "[2]": {"system": "DOCA hypertensive micropigs", "assay": "Assay XIV: chronic in vivo effects in DOCA hypertensive micropigs", "design": "species or system micropig", "details": "for Mean arterial pressure: 5 mg/kg/hr infusion", "description": "This study examines the efficacy of Ex. #859 in deoxycorticosterone acetate ([…]) hypertensive micropigs (Charles River; 6 months of age). Micropigs were made hypertensive by implanting subcutaneously DOCA strips (100 mg/kg) under isoflurane anesthesia. Hypertension stabilizes after one month. Mean arterial pressure was measured using a Gould chart recorder and Statham P23dB transducers. After one month Ex. #859 conjugate was infused for three days at 5 mg/kg/hr)."}, "[3]": {"system": "conscious SHR", "assay": "Assay XIII: antihypertensive experiments in conscious SHR (renal denervation, bulbocapnine)", "assay_type": "in vivo, rat", "description": "For antihypertensive experiments, male SHR (11-13 weeks of age; Harlan Sprague-Dawley, Inc.; Indianapolis, Ind.) were habituated for 3-4 days in individual experimental cages, which became their home cages for the duration of the study. Five to seven days before experimentation, SHR were anesthetized with chloral hydrate (400 mg/kg; Sigma Chemical Co., St. Louis, Mo.) and catheters were implanted into a femoral artery and vein. The catheters were led to the back of the neck, exteriorized, and channeled through a tether and swivel system (Alice King Chatham, Los Angeles, Calif.). Surgical renal denervation was performed as above. […] In separate groups of conscious SHR, Ex. #859 (5 mg/kg/hr, n=6) was infused alone, Ex. #859 (5 mg/kg/hr, n=6) was coinfused with bulbocapnine (100 μg/kg/min), or Ex. #859 (10 mg/kg/hr, n=6) was infused 5-7 days after surgical renal denervation. Surgical renal denervation was performed as described above. After a one hour control measure of mean arterial pressure, compounds were infused for four hours and mean arterial pressure was measured continuously."}, "[4]": {"system": "Male mongrel dogs", "assay": "Assay XII: acute i.v. effects on mean arterial pressure and renal blood flow in anesthetized dogs", "assay_type": "in vivo, dog", "description": "This experiment was run to determine the renal selectivity of conjugate of the invention in dogs. Male mongrel dogs (15-20 kg/n=8; Antech, Inc., Barnhard, Mo.) were anesthetized with sodium pentobarbital (30 mg/kg as i.v. bolus, and 4-6 mg/kg/hr infusion) and catheters were placed in the femoral veins for compound injection or pentobarbital infusion, and the femoral artery for arterial pressure recording. An electromagnetic flow probe (Carolina Medical Electronics, Inc., King, N.C.) was placed around the left renal artery for measurement of renal blood flow. Renal blood flow and arterial pressure were recorded on a Gould chart recorder. After surgery, 20-30 minutes were allowed for variables to stabilize. […] Variables were monitored for the next three hours. Results are shown in Table XXXIV and FIGS. 14 and 15."}, "[5]": {"details": "7 mg/kg, 1 hour after injection"}, "[6]": {"details": "7 mg/kg, 2 hour after injection"}, "[7]": {"details": "7 mg/kg, 3 hour after injection"}, "[8]": {"details": "20 mg/kg i.v., 1 hour after injection"}, "[9]": {"details": "20 mg/kg i.v., 2 hour after injection"}, "[10]": {"details": "20 mg/kg i.v., 3 hour after injection"}, "[11]": {"details": "60 mg/kg i.v., 1 hour after injection"}, "[12]": {"details": "60 mg/kg i.v., 2 hour after injection"}, "[13]": {"details": "60 mg/kg i.v., 3 hour after injection"}}, "data": [{"smiles": "CCCCc1ccc(C(=O)NNC(=O)CCC(NC(C)=O)C(=O)O)nc1", "note": "[Ex. #859, N-acetyl-L-glutamic acid, 5-[(5-butyl-2-pyridinyl)-carbonyl]hydrazide]", "values": [{"measurement": "effect on renal blood flow", "setting": "[1]; anesthetized SHR, 50 mg/kg i.v. after surgical renal denervation", "result": "not changed"}, {"measurement": "effect on renal blood flow", "setting": "[1]; anesthetized SHR, 50 mg/kg i.v. alone, 60 minutes after injection", "result": "increased"}, {"measurement": "effect on renal blood flow", "setting": "[1]; anesthetized SHR, 50 mg/kg i.v. during bulbocapnine infusion (100 μg/kg/min)", "result": "not changed"}, {"measurement": "effect on mean arterial pressure", "setting": "[1]; anesthetized SHR, 50 mg/kg i.v., all groups", "result": "not changed"}, {"measurement": "Mean arterial pressure", "setting": "[1]; time 0 minutes", "result": "149 ± 8", "unit": "mmHg"}, {"measurement": "Renal Blood Flow", "setting": "[1]; time 0 minutes", "result": "7 ± 2", "unit": "mL/min"}, {"measurement": "Mean arterial pressure", "setting": "[1]; time 60 minutes", "result": "149 ± 7", "unit": "mmHg"}, {"measurement": "Renal Blood Flow", "setting": "[1]; time 60 minutes", "result": "12 ± 2", "unit": "mL/min"}, {"measurement": "Mean arterial pressure", "setting": "[2]; Day 1", "result": "151 ± 4"}, {"measurement": "Mean arterial pressure", "setting": "[2]; Day 2", "result": "132 ± 4"}, {"measurement": "Mean arterial pressure", "setting": "[2]; Day 3", "result": "119 ± 3"}, {"measurement": "effect on mean arterial pressure", "setting": "[2]; conscious DOCA hypertensive micropigs, infusion 5 mg/kg/hr for three days", "result": "normalized mean arterial pressure"}, {"measurement": "Mean arterial pressure", "setting": "[3]; BULBO: 5 mg/kg/hr coinfused with bulbocapnine 100 μg/kg/min, 0 hours", "result": "168 ± 8"}, {"measurement": "Mean arterial pressure", "setting": "[3]; BULBO: 5 mg/kg/hr coinfused with bulbocapnine 100 μg/kg/min, 1 hour", "result": "158 ± 6"}, {"measurement": "Mean arterial pressure", "setting": "[3]; BULBO: 5 mg/kg/hr coinfused with bulbocapnine 100 μg/kg/min, 2 hours", "result": "148 ± 5"}, {"measurement": "Mean arterial pressure", "setting": "[3]; BULBO: 5 mg/kg/hr coinfused with bulbocapnine 100 μg/kg/min, 3 hours", "result": "140 ± 7"}, {"measurement": "Mean arterial pressure", "setting": "[3]; BULBO: 5 mg/kg/hr coinfused with bulbocapnine 100 μg/kg/min, 4 hours", "result": "140 ± 5"}, {"measurement": "Mean arterial pressure", "setting": "[3]; DNX: 10 mg/kg/hr after surgical renal denervation, 0 hours", "result": "157 ± 3"}, {"measurement": "Mean arterial pressure", "setting": "[3]; DNX: 10 mg/kg/hr after surgical renal denervation, 1 hour", "result": "155 ± 4"}, {"measurement": "Mean arterial pressure", "setting": "[3]; DNX: 10 mg/kg/hr after surgical renal denervation, 2 hours", "result": "53 ± 4"}, {"measurement": "Mean arterial pressure", "setting": "[3]; DNX: 10 mg/kg/hr after surgical renal denervation, 3 hours", "result": "150 ± 4"}, {"measurement": "Mean arterial pressure", "setting": "[3]; DNX: 10 mg/kg/hr after surgical renal denervation, 4 hours", "result": "147 ± 4"}, {"measurement": "effect on mean arterial pressure over a four hour period", "setting": "[3]; conscious SHR, 5 mg/kg/hr coinfused with bulbocapnine (100 μg/kg/min)", "result": "lowered mean arterial pressure similar to Ex. #859 alone"}, {"measurement": "antihypertensive response", "setting": "[3]; conscious SHR, 10 mg/kg/hr, 5-7 days after surgical renal denervation", "result": "prevented the antihypertensive response"}, {"measurement": "effect on mean arterial pressure over a four hour period", "setting": "[3]; conscious SHR, continuous infusion 5 mg/kg/hr alone", "result": "antihypertensive"}, {"measurement": "Mean arterial pressure", "setting": "[3]; infused alone 5 mg/kg/hr, 0 hours", "result": "177 ± 6"}, {"measurement": "Mean arterial pressure", "setting": "[3]; infused alone 5 mg/kg/hr, 1 hour", "result": "172 ± 6"}, {"measurement": "Mean arterial pressure", "setting": "[3]; infused alone 5 mg/kg/hr, 2 hours", "result": "170 ± 7"}, {"measurement": "Mean arterial pressure", "setting": "[3]; infused alone 5 mg/kg/hr, 3 hours", "result": "164 ± 7"}, {"measurement": "Mean arterial pressure", "setting": "[3]; infused alone 5 mg/kg/hr, 4 hours", "result": "154 ± 6"}, {"measurement": "Mean arterial pressure", "setting": "[4]; [5]", "result": "116 ± 5", "unit": "mmHg"}, {"measurement": "Renal Blood Flow", "setting": "[4]; [5]", "result": "92 ± 5", "unit": "mL/min"}, {"measurement": "Mean arterial pressure", "setting": "[4]; [6]", "result": "113 ± 4", "unit": "mmHg"}, {"measurement": "Renal Blood Flow", "setting": "[4]; [6]", "result": "111 ± 14", "unit": "mL/min"}, {"measurement": "Mean arterial pressure", "setting": "[4]; [7]", "result": "114 ± 4", "unit": "mmHg"}, {"measurement": "Renal Blood Flow", "setting": "[4]; [7]", "result": "118 ± 23", "unit": "mL/min"}, {"measurement": "Mean arterial pressure", "setting": "[4]; 7 mg/kg, time zero", "result": "114 ± 6", "unit": "mmHg"}, {"measurement": "Renal Blood Flow", "setting": "[4]; 7 mg/kg, time zero", "result": "92 ± 5", "unit": "mL/min"}, {"measurement": "Mean arterial pressure", "setting": "[4]; [8]", "result": "124 ± 2", "unit": "mmHg"}, {"measurement": "Renal Blood Flow", "setting": "[4]; [8]", "result": "107 ± 14", "unit": "mL/min"}, {"measurement": "Mean arterial pressure", "setting": "[4]; [9]", "result": "125 ± 3", "unit": "mmHg"}, {"measurement": "Renal Blood Flow", "setting": "[4]; [9]", "result": "122 ± 20", "unit": "mL/min"}, {"measurement": "Mean arterial pressure", "setting": "[4]; [10]", "result": "125 ± 4", "unit": "mmHg"}, {"measurement": "Renal Blood Flow", "setting": "[4]; [10]", "result": "126 ± 24", "unit": "mL/min"}, {"measurement": "Mean arterial pressure", "setting": "[4]; 20 mg/kg i.v., time zero", "result": "120 ± 3", "unit": "mmHg"}, {"measurement": "Renal Blood Flow", "setting": "[4]; 20 mg/kg i.v., time zero", "result": "88 ± 11", "unit": "mL/min"}, {"measurement": "Mean arterial pressure", "setting": "[4]; [11]", "result": "124 ± 1", "unit": "mmHg"}, {"measurement": "Renal Blood Flow", "setting": "[4]; [11]", "result": "145 ± 21", "unit": "mL/min"}, {"measurement": "Mean arterial pressure", "setting": "[4]; [12]", "result": "126 ± 3", "unit": "mmHg"}, {"measurement": "Renal Blood Flow", "setting": "[4]; [12]", "result": "168 ± 28", "unit": "mL/min"}, {"measurement": "Mean arterial pressure", "setting": "[4]; [13]", "result": "120 ± 4", "unit": "mmHg"}, {"measurement": "Renal Blood Flow", "setting": "[4]; [13]", "result": "176 ± 32", "unit": "mL/min"}, {"measurement": "Mean arterial pressure", "setting": "[4]; 60 mg/kg i.v., time zero", "result": "123 ± 3", "unit": "mmHg"}, {"measurement": "Renal Blood Flow", "setting": "[4]; 60 mg/kg i.v., time zero", "result": "131 ± 21", "unit": "mL/min"}]}]}
